Source: DBAASP
Converted amounts (≈) assume the structure as drawn. Blank lines part the entries; values can stand above or below the molecule they belong to.

How the values were obtained:
Test in all cases: ≥ marks a high value that may be exact or a test limit, other limits are often not marked, values filed in µg/mL are converted to µM
[1] = system: Staphylococcus aureus ATCC 6538
[2] = system: Pseudomonas aeruginosa ATCC 9027
[3] = system: Staphylococcus aureus NCTC 8325
[4] = system: Escherichia coli ATCC 25922
Staphylococcus aureus = system: Staphylococcus aureus
Escherichia coli = system: Escherichia coli
Bacillus cereus = system: Bacillus cereus
Bacillus subtilis = system: Bacillus subtilis
[5] = system: Escherichia coli DH5alpha
[6] = system: Klebsiella pneumoniae ATCC 13883
[7] = system: Staphylococcus aureus USA 300
[8] = system: Pseudomonas aeruginosa PAO1
Salmonella typhimurium = system: Salmonella typhimurium
[9] = system: Bacillus subtilis ATCC 6051
[10] = system: Staphylococcus aureus NCTC 10788

Structure (SMILES): CC(C)C[C@H](NC(=O)[C@H](CC(C)C)NC(=O)[C@H](CCCCN)NC(=O)[C@H](CCCCN)NC(=O)[C@H](C)NC(=O)[C@H](CC(C)C)NC(=O)[C@H](CCCCN)NC(=O)[C@H](C)NC(=O)[C@H](CC(C)C)NC(=O)[C@H](C)NC(=O)[C@H](CCCCN)NC(=O)[C@H](C)NC(=O)[C@@H](N)Cc1ccccc1)C(N)=O [FAKALAKLAKKLL]
MIC [1]: 3.53 µM (≈ 5 µg/mL)
MIC [2]: 3.53 µM (≈ 5 µg/mL)

Structure (SMILES): CC(C)C[C@H](NC(=O)[C@H](CC(C)C)NC(=O)[C@H](CCCCN)NC(=O)[C@H](CCCCN)NC(=O)[C@H](C)NC(=O)[C@H](C)NC(=O)[C@H](CC(C)C)NC(=O)[C@H](CCCCN)NC(=O)[C@H](CC(C)C)NC(=O)[C@H](CC(C)C)NC(=O)[C@H](CCCCN)NC(=O)[C@H](C)NC(=O)[C@@H](N)Cc1ccccc1)C(N)=O [FAKLLKLAAKKLL]
MIC [1]: 137 µM (≈ 200 µg/mL)
MIC [2]: 3.43 µM (≈ 5 µg/mL)

MIC [3]: 20 µM (≈ 47.2 µg/mL)
MIC [4]: 12 µM (≈ 28.3 µg/mL)
Structure (SMILES): CC[C@@H](C)[C@H](N=C(O)[C@H](CO)N=C(O)C(CC(C)C)N=C(O)[C@H](CCSC)N=C(O)[C@@H]1CCCN1C(=O)[C@H](CC(C)C)N=C(O)CN=C(O)[C@H](N)Cc1ccccc1)C(O)=N[C@H](CC(C)C)C(=O)N1CCCC1C(O)=N[C@H](CCCCN)C(O)=N[C@H](C)C(O)=N[C@H](CC(C)C)C(O)=N[C@H](CS)C(O)=N[C@H](C(O)=N[C@H](CC(C)C)C(O)=N[C@H](CC(C)C)C(O)=N[C@H](CCCCN)C(O)=N[C@H](CCCNC(=N)N)C(O)=N[C@H](CCCCN)C(O)=N[C@H](CS)C(=O)O)[C@H](C)CC (some centres not stated) [FGLPMLSILPKALCILLKRKC]

MIC [3]: 12 µM (≈ 19.3 µg/mL)
Structure (SMILES): CC[C@H](C)[C@H](NC(=O)[C@H](CC(C)C)NC(=O)[C@@H]1CCCN1C(=O)[C@H](CC(C)C)NC(=O)[C@@H](NC(=O)[C@@H](N)Cc1ccccc1)[C@@H](C)CC)C(=O)N[C@@H](C)C(=O)N[C@@H](CO)C(=O)N[C@@H](Cc1ccccc1)C(=O)N[C@@H](CC(C)C)C(=O)N[C@@H](CO)C(=O)N[C@@H](CCCCN)C(=O)N[C@@H](Cc1ccccc1)C(=O)N[C@@H](CC(C)C)C(N)=O [FILPLIASFLSKFL]

MIC (Staphylococcus aureus): > 59.5 µM
MIC (Escherichia coli): 59.5 µM (≈ 128 µg/mL)
MIC (Bacillus cereus): ≥ 59.5 µM
Structure (SMILES): CC(C)C[C@H](NC(=O)[C@@H](N)Cc1ccccc1)C(=O)NCC(=O)N[C@@H](CCCCN)C(=O)N[C@H](C(=O)N[C@H](C(=O)N[C@@H](CCCCN)C(=O)N[C@@H](CCCCN)C(=O)N[C@@H](C)C(=O)N[C@@H](CO)C(=O)N[C@@H](CCCCN)C(=O)N[C@H](C(=O)N[C@@H](Cc1ccccc1)C(=O)N1CCC[C@H]1C(=O)N[C@@H](C)C(=O)N[C@H](C(=O)N[C@@H](Cc1ccccc1)C(=O)NCC(=O)N[C@@H](CCCCN)C(=O)N[C@H](C(=O)O)C(C)C)C(C)C)C(C)C)C(C)C)C(C)C [FLGKVVKKASKVFPAVFGKV]

MIC (Staphylococcus aureus): > 121 µM
MIC (Escherichia coli): > 121 µM
MIC (Bacillus cereus): ≥ 121 µM
Structure (SMILES): CC(C)C[C@H](NC(=O)[C@@H](N)Cc1ccccc1)C(=O)NCC(=O)N[C@@H](CO)C(=O)N[C@H](C(=O)N[C@@H](Cc1ccccc1)C(=O)N[C@@H](CCCCN)C(=O)N[C@@H](CO)C(=O)N[C@@H](C)C(=O)N[C@@H](CO)C(=O)N[C@@H](CCCCN)C(=O)N[C@H](C(=O)N[C@@H](Cc1ccccc1)C(=O)N1CCC[C@H]1C(=O)N[C@@H](C)C(=O)N[C@H](C(=O)N[C@@H](Cc1ccccc1)C(=O)NCC(=O)N[C@@H](CCCCN)C(=O)N[C@H](C(=O)O)C(C)C)C(C)C)C(C)C)C(C)C [FLGSVFKSASKVFPAVFGKV]

MIC (Staphylococcus aureus): 1.8 µM (≈ 4 µg/mL)
MIC (Escherichia coli): 28.8 µM (≈ 64 µg/mL)
MIC (Bacillus cereus): 7.19 µM (≈ 16 µg/mL)
Structure (SMILES): CC(C)C[C@H](NC(=O)[C@H](CCCCN)NC(=O)[C@H](Cc1ccccc1)NC(=O)[C@@H](NC(=O)[C@@H](NC(=O)CNC(=O)[C@H](CC(C)C)NC(=O)[C@@H](N)Cc1ccccc1)C(C)C)C(C)C)C(=O)N[C@@H](C)C(=O)N[C@@H](CO)C(=O)N[C@@H](CCCCN)C(=O)N[C@H](C(=O)N[C@@H](Cc1ccccc1)C(=O)N1CCC[C@H]1C(=O)N[C@@H](C)C(=O)N[C@H](C(=O)N[C@@H](Cc1ccccc1)C(=O)N[C@@H](CCCCN)C(=O)N[C@@H](CCCCN)C(=O)N[C@H](C(=O)O)C(C)C)C(C)C)C(C)C [FLGVVFKLASKVFPAVFKKV]

MIC [3]: 3 µM (≈ 7.69 µg/mL)
MIC [4]: 15 µM (≈ 38.4 µg/mL)
Structure (SMILES): CC[C@H](C)[C@H](NC(=O)[C@H](C)NC(=O)[C@@H]1CCCN1C(=O)[C@H](CC(C)C)NC(=O)[C@@H](N)Cc1ccccc1)C(=O)N[C@H](C(=O)NCC(=O)N[C@@H](C)C(=O)N[C@@H](C)C(=O)N[C@@H](C)C(=O)N[C@@H](CCCCN)C(=O)N[C@@H](Cc1ccccc1)C(=O)N[C@@H](CC(C)C)C(=O)N1CCC[C@H]1C(=O)N[C@@H](CCCCN)C(=O)N[C@H](C(=O)N[C@@H](Cc1ccccc1)C(=O)N[C@H]1CSSC[C@@H](C(=O)O)NC(=O)[C@H](CCCCN)NC(=O)[C@H](CCCCN)NC(=O)[C@H](CO)NC(=O)[C@H]([C@@H](C)CC)NC(=O)[C@H](C(C)C)NC1=O)[C@@H](C)CC)C(C)C [FLPAIVGAAAKFLPKIFCVISKKC]

MIC [3]: 15 µM (≈ 20.7 µg/mL)
Structure (SMILES): CC[C@H](C)[C@H](NC(=O)[C@@H](NC(=O)[C@@H]1CCCN1C(=O)[C@H](CC(C)C)NC(=O)[C@@H](N)Cc1ccccc1)[C@@H](C)CC)C(=O)N[C@@H](C)C(=O)N[C@@H](CCCCN)C(=O)N[C@H](C(=O)N[C@@H](CC(C)C)C(=O)N[C@@H](CO)C(=O)NCC(=O)N[C@@H](CC(C)C)C(=O)N[C@@H](CC(C)C)C(N)=O)C(C)C [FLPIIAKVLSGLL]

MIC (Bacillus subtilis): 2.4 µM (≈ 6.73 µg/mL)
MIC (Staphylococcus aureus): 4.3 µM (≈ 12.1 µg/mL)
MIC [5]: 4.5 µM (≈ 12.6 µg/mL)
Structure (SMILES): CC[C@H](C)[C@H](NC(=O)CN)C(=O)NCC(=O)N[C@@H](C)C(=O)N[C@H](C(=O)N[C@@H](CC(C)C)C(=O)N[C@@H](CCCCN)C(=O)N[C@H](C(=O)N[C@@H](CC(C)C)C(=O)N[C@H](C(=O)N[C@H](C(=O)NCC(=O)N[C@@H](C)C(=O)N1CCC[C@H]1C(=O)N[C@@H](C)C(=O)N[C@@H](CC(C)C)C(=O)N[C@H](C(=O)N[C@@H](CO)C(=O)N[C@@H](Cc1c[nH]c2ccccc12)C(=O)N[C@H](C(=O)N[C@@H](CCCCN)C(=O)N[C@@H](CCCN=C(N)N)C(=O)N[C@@H](CCCCN)C(=O)N[C@@H](CCCN=C(N)N)C(=O)N[C@@H](CCC(N)=O)C(=O)N[C@@H](CCC(N)=O)C(N)=O)[C@@H](C)CC)[C@@H](C)CC)[C@@H](C)O)[C@@H](C)O)C(C)C)C(C)C [GIGAVLKVLTTGAPALISWIKRKRQQ]

MIC [6]: 3.1 µM (≈ 4.02 µg/mL)
MIC [7]: 1.56 µM (≈ 2.02 µg/mL)
MIC [8]: > 25 µM
MIC [4]: 3.1 µM (≈ 4.02 µg/mL)
Structure (SMILES): CC(C)C[C@H](NC(=O)[C@H](CC(C)C)NC(=O)[C@H](CCCCN)NC(=O)CNC(=O)[C@H](CC(C)C)NC(=O)[C@H](C)NC(=O)[C@H](CCCCN)NC(=O)[C@H](CC(C)C)NC(=O)[C@H](C)NC(=O)[C@H](CO)NC(=O)[C@H](CC(C)C)NC(=O)[C@H](CC(C)C)NC(=O)CN)C(N)=O [GLLSALKALGKLL]

MIC (Bacillus subtilis): 8 µM (≈ 14.2 µg/mL)
MIC (Staphylococcus aureus): 8 µM (≈ 14.2 µg/mL)
MIC (Escherichia coli): 8 µM (≈ 14.2 µg/mL)
MIC (Salmonella typhimurium): 4 µM (≈ 7.1 µg/mL)
Structure (SMILES): CC[C@H](C)[C@H](NC(=O)[C@H](CCCN=C(N)N)NC(=O)[C@@H](NC(=O)[C@@H](NC(=O)[C@@H](NC(=O)CN)C(C)C)C(C)C)C(C)C)C(=O)NCC(=O)N[C@@H](CCCN=C(N)N)C(=O)N[C@H](C(=O)N[C@H](C(=O)N[C@H](C(=O)N[C@@H](CCCN=C(N)N)C(=O)NCC(=O)N[C@H](C(=O)N[C@@H](CCCN=C(N)N)C(=O)N[C@@H](CCCN=C(N)N)C(N)=O)C(C)C)C(C)C)C(C)C)C(C)C [GVVVRIGRVVVRGVRR]

MIC [9]: ≥ 1000 µM
Structure (SMILES): CC[C@H](C)[C@H](NC(=O)[C@H](CC(N)=O)NC(=O)[C@H](CC(N)=O)NC(=O)CNC(=O)[C@H](CCC(=O)O)NC(=O)[C@H](CC(N)=O)NC(=O)[C@H](CCC(=O)O)NC(=O)[C@H](CCC(N)=O)NC(=O)[C@H](CCC(=O)O)NC(=O)[C@H](CCC(=O)O)NC(=O)[C@@H](N)CCCCN)C(=O)N[C@@H](Cc1ccccc1)C(=O)N[C@H](C(=O)N[C@@H](CC(N)=O)C(=O)N[C@@H](CCCN=C(N)N)C(=O)N[C@@H](Cc1cnc[nH]1)C(=O)N[C@H](C(=O)N[C@H](C(=O)N[C@@H](CC(=O)O)C(=O)N[C@@H](CCCCN)C(=O)N[C@@H](CC(C)C)C(=O)O)C(C)C)[C@@H](C)CC)C(C)C [KEEQENEGNNIFVNRHIVDKL]

MIC [10]: ≥ 157 µM
Structure (SMILES): CC(C)C[C@H](NC(=O)[C@H](CC(C)C)NC(=O)CNC(=O)CNC(=O)[C@H](CC(C)C)NC(=O)[C@@H](NC(=O)[C@H](CC(N)=O)NC(=O)[C@H](CO)NC(=O)[C@@H](NC(=O)[C@H](CC(C)C)NC(=O)CNC(=O)[C@H](CC(C)C)NC(=O)[C@@H](NC(=O)[C@@H]1CCCN1C(=O)CNC(=O)[C@H](CC(C)C)NC(=O)[C@@H](N)CC(C)C)C(C)C)C(C)C)C(C)C)C(N)=O [LLGPVLGLVSNVLGGLL]
